The values that follow come from patent US6664088B2, “Production of vanillin” (Plant Bioscience Limited, priority 1996, dated 2003).

For assay [1], the system named is Ps. fluorescens biovar. V, strain AN103. The assay can be described thus: Relative growth of strain AN103 on a range of carbon substrates (absorbance at 600 nm). It is filed as cell-based, Pseudomonas fluorescens. Conditions: for activity at 10000 µM: read-out: Relative Growth (%). As to the method:
KH2PO4, 5 g; […] FeSO4, 0.5 mg; CaCl2, 0.5 mg; MnCl2.5H2O, 5 mg; (NH4)6Mo2O7.4H2O, 1.1 mg; MgSO4, 5 mg; EDTA, 50 mg; […] The pH was 7.0. Carbon sources were included as indicated. […] Growth was monitored by measuring absorbance at 550 or 600 nm. [table]

Assay [2] relates to trans-ferulate: CoASH ligase. As to the kind of experiment: trans-ferulate:CoASH ligase assay, initial increase in absorbance at 345 nm. It is filed as biochemical, Pseudomonas fluorescens. Conditions: crude extracts of Ps. fluorescens AN103; initial rate at absorbance maximum of the SCoA thioester. As to the method: (§1) Cell-free extracts were routinely incubated at 30° C. and pH 7.5 in a reaction mixture (1 ml) containing 90 mM Tris HCl buffer and 2.5 mM MgCl2, together with (as appropriate) 0.5 mM trans-ferulic acid, 0.2 mM CoASH (Li salt) and 2.5 mM ATP. This complete reaction mixture constituted an assay for trans-ferulate: CoASH ligase, where the initial increase in absorbance at 345 nm was monitored against a blank reaction mixture from which CoASH was omitted. Incubations with HMPHP SCoA (generally 0.4 mM) were performed similarly, but with the omission of trans-ferulic acid, CoASH and ATP.

Assay [3] relates to enzyme activities I, II and III from Ps. fluorescens biovar V, strain AN103. As to the kind of experiment: Use of cinnamates as substrates by enzyme activities I, II and III. The format is biochemical, Pseudomonas fluorescens. Conditions: AN103 enzymes.
In assay [4] the test system is cell-free extract of strain AN103. The assay can be described thus: Incubation of CoASH thioesters with cell-free extract. It is filed as biochemical, Pseudomonas fluorescens. As to the method:
as §1
Metabolites of trans-ferulic acid, including the CoASH thioesters, were analysed and quantitated by HPLC using a Lichrosorb RP-18 column (20 cm×4.6 mm; Capital HPLC, Broxburn, West Lothian, UK) with a multiphasic gradient; solvent “A” was 20 mM NaOAc, adjusted to pH 6.0 and solvent“B” was MeOH; the flow rate was 1.2 ml/min; the proportion of solvent “B” rose linearly from 0% at 0 min to 10% at 15 min and thence to 50% at 40 min and 70% at 45 min, finally decreasing to 0% at 50 min. Detection was with a Spectra Focus detector (Thermo Separation Products, Stone, Staffs. UK), which permitted u/v spectral analysis of each eluting component.

For assay [5], the target named is T1, Vanillin: NAD+ oxidoreductase (Pseudomonas fluorescens, UniProt O69763).
T1 construct: endogenous in cells; host or cells: Ps. fluorescens AN103 / van 1 / van 10 cell-free extracts; also E. coli DH5 carrying pUC18 with the full-length ORF
T1 sequence (O69763 whole entry): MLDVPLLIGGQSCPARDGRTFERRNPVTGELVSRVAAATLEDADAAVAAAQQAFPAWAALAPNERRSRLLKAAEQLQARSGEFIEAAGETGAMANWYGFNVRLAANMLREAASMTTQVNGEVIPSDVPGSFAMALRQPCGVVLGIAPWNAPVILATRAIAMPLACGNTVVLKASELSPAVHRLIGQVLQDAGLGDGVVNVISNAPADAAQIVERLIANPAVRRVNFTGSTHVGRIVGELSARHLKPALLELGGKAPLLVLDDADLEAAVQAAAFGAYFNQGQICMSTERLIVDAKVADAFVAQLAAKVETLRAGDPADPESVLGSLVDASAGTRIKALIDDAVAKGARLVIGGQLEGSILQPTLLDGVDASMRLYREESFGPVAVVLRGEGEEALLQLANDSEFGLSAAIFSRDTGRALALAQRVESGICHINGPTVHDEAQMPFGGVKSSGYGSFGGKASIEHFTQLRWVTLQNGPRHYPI
The assay can be described thus: Vanillin:NAD+ oxidoreductase assay, decrease in absorbance at 340 nm. The format is biochemical. Conditions: gene expressed in E. coli strain DH5 from pUC18. As for the experimental part:
Vanillin: NAD^+ oxidoreductase was assayed at 30° C. and pH 7.0 by monitoring the initial decrease in absorbance at 340 nm against a blank cuvette from which NAD^+ was omitted. Because of the similarity in extinction coefficient at 340 nm for vanillin and for NADH, the sensitivity of the assay was increased by catalysing the regeneration of NADH to NAD^+ by providing lactate dehydrogenase and pyruvate. Reaction mixtures contained, in 1 ml volume, 75 mM KPi buffer, pH 7.0, 0.125 mM vanillin, 1.2 mM Na pyruvate, lactate dehydrogenase (rabbit muscle), 1.1 U and NAD^+, 0.5 mM.
In order to confirm the function of this gene, expression was determined in E. coli strain DH5, which contained the vector pUC18 into which the full-length open reading frame had been inserted such that expression was from the lac promoter on the vector. Vanillin: NAD^+ oxidoreductase activity was confirmed and was absent from a control strain bearing the unmodified pUC 18 vector. Using the enzyme assay described in Example 2, activity with vanillin as substrate was determined as 3.0 nkat/mg of protein; activity with salicylaldehyde was 2.8 nkat/mg.

The target in assay [6] is T2, trans-feruloyl SCoA hydratase/aldol cleavage enzyme (Pseudomonas fluorescens, UniProt O69762).
T2 construct: Purification from cells of Ps. fluorescens biovar V, strain AN103, was; endogenous in cells; host or cells: Ps. fluorescens biovar; V strain AN103 grown on trans-ferulate (crude extract, then Mono Q, Mono P, PhenylSuperose); also crude extract of E. coli JM109(DE3) with the gene in pSP72
T2 sequence (O69762 2-276): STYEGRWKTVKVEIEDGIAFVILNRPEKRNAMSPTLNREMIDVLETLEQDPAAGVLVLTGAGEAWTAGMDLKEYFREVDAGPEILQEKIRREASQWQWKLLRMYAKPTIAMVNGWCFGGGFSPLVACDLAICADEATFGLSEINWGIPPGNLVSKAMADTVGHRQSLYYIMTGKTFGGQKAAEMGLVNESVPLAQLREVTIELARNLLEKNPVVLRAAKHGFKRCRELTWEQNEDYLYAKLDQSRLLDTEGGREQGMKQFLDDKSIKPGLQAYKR
As to the kind of experiment: trans-feruloyl SCoA hydratase/aldol cleavage enzyme activity, reaction products by HPLC. It is filed as biochemical. To be noted: 30° C., 0.4 mM substrate, 2.8 μg enzyme partially purified by Mono-Q and Mono-P. As to the method:
At each stage of purification, active fractions were detected by a micro-adaptation of the assay with HMPHP SCoA described above (Example 2); reactions were performed in 100 μl of reaction mixture for ca. 4 min at room temperature in microtitre wells and absorbance was then measured in an MR 5000 microtitre plate reader (Dynatech, Guernsey, Channel Islands), equipped with a 340 nm filter. The activity of the pooled fractions was measured using HPLC to determine the reaction products of both HMPHP SCoA, (0.4 mM) and trans-feruloyl SCoA (0.28 mM) as substrates. […] The proportionality of the reactions with time and with quantity of enzyme was established in preliminary determinations.
E. coli cells were grown at 37° C. for 3 h in 50 ml of L medium, containing ampicillin (50 μg/ml) with and without induction by IPTG. Extracts were prepared as described above in Example 2 for Ps. fluorescens AN103, but without centrifugation. The crude extract was used for assay. Enzyme activity with both HMPHP SCoA and trans-feruloyl ScoA was determined as described above in Example 4 using HPLC to determine the reaction products. […] There was no activity with either trans-feruloyl SCoA or HMPHP SCoA in extracts of an unmanipulated E. coli strain, whether induced or not. In the manipulated strain E. coli 1039 that expresses the Pseudomonas gene the specific activity was slightly lower in the exLract made following induction than in that made from uninduced bacteria. […] It was not possible to detect expression of the 31 kD protein visually on Coomassie-stained, one-dimensional SDS gels because of its co-migration with the strongly expressed β-lactamase encoded by the vector ampicillin resistance marker.

[7] abbreviates: Pseudomonas fluorescens, substrate 10 mM on MM Medium, 48 h at 25° C., absorbance at 600 nm.
Setting [8] is: substrate 10 mM on MM Medium, 48 h at 25° C., absorbance at 600 nm.

Read-outs that look alike come from different tables or passages of the source. Some results are limits rather than exact numbers.

`COc1cc(/C=C/C(=O)O)ccc1O` [Ferulic acid, 4-hydroxy-3-methoxy-trans-cinnamate]: the activity at 10000 µM in assay [1] (setting [7]) stood at 100%.

`O=C(O)/C=C/c1ccc(O)cc1` [p-Coumarate, 4-hydroxy-trans-cinnamate]: the “Activity, formation of CoASH thioester” value in assay [2] is 0.37 nkat/mg protein. In addition, the “Use as substrate by enzyme activities I, II and III” value (“Use as substrate” for short) in assay [3] is listed as “reasonable efficiency”.

With `COc1cc(C(=O)SCCNC(=O)CCNC(=O)[C@H](O)C(C)(C)COP(=O)(O)OP(=O)(O)OC[C@H]2O[C@@H](n3cnc4c(N)ncnc43)[C@H](O)[C@@H]2OP(=O)(O)O)ccc1O` [vanilloyl SCoA, 4hydroxy-3-methoxybenzoyl SCoA], the “Metabolism to vanillin by cell-free extracts” value in assay [4] (in the presence of NADH) is listed as “not to be metabolised to vanillin”.

For the compound `O=C(O)/C=C/c1ccc(O)c(O)c1` [Caffeic acid, 3,4-dihydroxy-trans-cinnamate], the activity at 10000 µM in assay [1] (setting [7]) came out at 79%.

Turning to `COc1cc(C=O)ccc1O` [Vanillin, 4-hydroxy-3-methoxybenzaldehyde], the activity at 1000 µM in assay [1] (Pseudomonas fluorescens, vanillin 1 mM on MM Medium, 48 h at 25° C., absorbance at 600 nm) was < 100%. The “Effect on growth of strain AN103” value in assay [1] (concentrations higher than the low concentrations (<1 mM)) is on record as “growth-inhibitory”. Moreover, the “Activity as substrate of vanillin:NAD+ oxidoreductase” value in assay [5] is 3.0 nkat/mg of protein.

For `CC(C)(COP(=O)(O)OP(=O)(O)OC[C@H]1O[C@@H](n2cnc3c(N)ncnc32)[C@H](O)[C@@H]1OP(=O)(O)O)[C@@H](O)C(=O)NCCC(=O)NCCSC(=O)/C=C/c1ccc(O)c(O)c1` (relative stereo) [Caffeoyl SCoA, trans-caffeoyl SCoA], the “Activity, utilisation of trans-p-hydroxycinnamoyl SCoA thioester” value in assay [6] is 0.36 nkat/mg of protein.

As for `CC(=O)O` [Acetate], the “Relative Growth (%)” value in assay [1] (setting [8]) is given as 47%.

Turning to `O=C(O)c1ccc(O)c(O)c1` [Protocatechuic acid], the activity at 10000 µM in assay [1] (Pseudomonas fluorescens, 48 h) came to 77%.

For `O=Cc1ccccc1O` [salicylaldehyde], the “Activity as substrate of vanillin:NAD+ oxidoreductase” value in assay [5] was 2.8 nkat/mg.

In the case of `COc1cc(C(=O)O)ccc1O` [Vanillic acid], the activity at 10000 µM in assay [1] (setting [7]) was 140%.

Consider `CO` [Methanol], for which the activity at 10000 µM in assay [1] (Pseudomonas fluorescens, 48 h) was 0%.

In the case of `O=C(O)C=Cc1ccccc1` [Cinnamic acid], the activity at 10000 µM in assay [1] (setting [7]) stood at 0%. The “Use as substrate” value in assay [3] was “poor substrates”.

Take `COc1cc(C=CC(=O)SCCNC(=O)CCNC(=O)[C@H](O)C(C)(C)COP(=O)(O)OP(=O)(O)OC[C@H]2O[C@@H](n3cnc4c(N)ncnc43)[C@H](O)[C@@H]2OP(=O)(O)O)ccc1O` (relative stereo) [Feruloyl SCoA, trans-feruloyl SCoA]: the “Activity, utilisation of trans-p-hydroxycinnamoyl SCoA thioester” value in assay [6] is 0.60 nkat/mg of protein.

On to `O=Cc1ccc(O)c(O)c1` [Protocatechuic aldehyde], for which the “Relative Growth (%)” value in assay [1] (setting [8]) worked out at 0%.

For `COc1cc(/C=C/C(=O)O)cc(OC)c1O` [Sinapic acid], the activity at 10000 µM in assay [1] (setting [7]) is 0%.

On to `O=C(O)/C=C/c1ccc2c(c1)OCO2` [3,4-methylenedioxy-trans-cinnamate], for which the “Use as substrate” value in assay [3] is on record as “poor substrates”.

As to `COc1cc(C(O)CC(=O)SCCNC(=O)CCNC(=O)[C@H](O)C(C)(C)COP(=O)(O)OP(=O)(O)OC[C@H]2O[C@@H](n3cnc4c(N)ncnc43)[C@H](O)[C@@H]2OP(=O)(O)O)ccc1O` (stereo partly drawn) [HMPHP SCoA, 4-hydroxy-3-methoxyphenyl-β-hydroxypropionyl SCoA], the “Metabolism by cell-free extract” value in assay [4] (incubated with cell-free extract, absence of NAD+) is “converted rapidly to acetyl SCoA and vanillin, in equimolar proportions”.

Turning to `CC(C)(COP(=O)(O)OP(=O)(O)OC[C@H]1O[C@@H](n2cnc3c(N)ncnc32)[C@H](O)[C@@H]1OP(=O)(O)O)[C@@H](O)C(=O)NCCC(=O)NCCSC(=O)/C=C/c1ccc(O)cc1` (relative stereo) [p-Coumaroyl SCoA, trans-4-coumaroyl SCoA], the “Activity, utilisation of trans-p-hydroxycinnamoyl SCoA thioester” value in assay [6] was 0.72 nkat/mg of protein.
